Experimental findings from US12168673B2 (Mitopower, Inc., priority 2022, dated 2024) are described below.

Series [1] deals with Huh-7 Cells. Nature of the series: Cellular NAD+ levels in Huh-7 cells (LCMS/MS). The format is cell-based. The conditions noted are these: 125 μm, four hours of incubation. As to the method:
(§1) Huh-7 Cells, sourced from NCCS Pune, were cultured in RPMI media containing FBS & Antibiotics. Cells from different flasks (80-90% confluent) were pooled into a 15 mL conical tube and centrifuged for 5 mins at 1200 rpm for 5 mins. The supernatant solution was discarded, and the pellet was washed with 5 mL sterile PBS (without Ca^2+ and Mg^2+). The tube was then centrifuged at 1200 rpm for 5 mins and the supernatant was discarded. The cell pellet was resuspended in 7 mL of RPMI media, and a cell count was done using 10 uL of the cell solution. 1.5 million cells from the cell solution were seeded into 1.5 mL microcentrifuge tubes. […] The tubes were placed in racks and gently swirled to mix the compounds into the media containing the cells. These tubes were then incubated for 4 hours in a 37° C. incubator at 5% CO2. After 4 hours of incubation the cells were spun down at 1000 rpm for 10 mins, the supernatant was discarded carefully, and cells were snap frozen in liquid nitrogen. When the samples were run, the extraction of the cells was on ice, cells were lysed using 20 uL deionized water and then ice cold 80% methanol containing the internal standard—Rac-Tenofovir D was added. The tubes were then vortexed at 2500 rpm for 8 minutes and then centrifuged at […] for 10 minutes. 150 uL of the supernatant was carefully transferred to HPLC vials and was analyzed for NAD^+ on the Abscised 4000 Q Trap LCMS/MS system. A C18, 3.5 μm, 2.1×100 mm, Bridge Column was used in the LC. The mobile phase consisted of 10 mM ammonium acetate with 0.1% acetic acid & 0.1% hexylamine as Solvent-A and 10 mM Ammonium acetate with 0.1% acetic acid and 0.1% hexylamine in 95/5 MeOH/H2O as Solvent-B. The gradient used was 0 mins-0.0% B, 0.5 mins-100% B, 1.5 mins-100% B, 3.0 mins-100% B, 3.1 mins-0.0% B, 7.0-STOP. The column flow rate was 0.5 mL/min. The sample injection volume was […].

A short description of series [2]: Kinetic solubility. The format is physicochemical. The conditions noted are these: for solubility at 1.5 h: aqueous buffer, kinetic from dmso stock, 0.1 M phosphate buffered saline pH 7.4, target 100 μM; for % Solubility: at 100 μM, 0.1 M phosphate buffered saline pH 7.4. The protocol:
The target compound concentration was 100 μM (kinetic), the assay buffer was 0.1 M phosphate buffered saline pH 7.4, the mixing period was 1.5 h (kinetic). The sample was prepared by centrifugation or filtration and the detection method used was HPLC with UV-vis spectrometry.

For series [3], the system named is Jurkat Cells. The experiment in a line: Cellular NAD+ levels in Jurkat cells (LCMS/MS). The format is cell-based. The conditions noted are these: 30 μM, four hours of incubation. As to the method: Compounds 100, 101 and 102 were weighted out to prepare 60 μM stock solutions in RPMI media. 200 ng/mL solution of Rac-tenofovir d6 (Vivan Life-Sciences) was prepared in methanol (MeOH) and placed at −20° C. until use.
as §1, with “Jurkat Cells,” for “Huh-7 Cells,”, “flasks (90%” for “flasks (80-90%”, “Ca^2+ &” for “Ca^2+ and”, “acid and” for “acid &”

Series [4] can be described thus: Human hepatocyte clearance. The format is in vitro ADME. The conditions noted are these: human hepatocytes. As to the method:
A hepatocyte vial was taken out from the liquid nitrogen tank and was thawed in a water bath maintained at 37° C. The thawed cell suspension was transferred into a torsion tube containing 50 mL of thawing media (Xenotech). The thawing media containing hepatocytes was centrifuged at 1000 rpm for 5 min, the supernatant was discarded and the pellet was resuspended in 2 ml of Xenotech OptiIncubate Media. The cells were counted by using a haemocytometer after mixing an aliquot of cell suspension with equal volume of trypan blue. The cell suspension was diluted to a working density of 2 million cells with DMEM media without FBS/incubation media.
The assay was performed in duplicates (n=2). 150 μL of 2 million cell working stock of hepatocyte cell suspension was added to a 24 well plate and incubated in a 37° C. incubator, with speed of 500 RPM for 10 min. 150 μL of 2 μM working stock of test compound was incubated separately. The reaction at 0, 15, 30, 60 and 90 min was stopped by precipitating 20 μL of incubation mixture with 200 μL of acetonitrile containing internal standard. […] The supernatant was separated and diluted 1:1 with water before injecting in LC-MS/MS analysis.

The mark [5] stands for this setting: read-out: Mean Solubility (μg/mL).

Where two headings read alike, the source gives them in different places.

In the case of `O=C(OC1O[C@H](CO)[C@@H](O)[C@H]1O)c1cccnc1` (stereo partly drawn) [Compound 100, (3R, 4S, 5R)-3,4-dihydroxy-5-(hydroxymethyl) tetrahydrofuran-2-yl nicotinate], the “NAD+ level increase compared to untreated cells” value in series [1] is “showed an increase”; in series [3] it was “showed statistical significance in terms of NAD^+ level increases”. For the same molecule, the values for the solubility at 1.5 h in series [2] (read-out: Mean Solubility) and in series [2] (setting [5]) were 96.5 µM and 24.6 µg/mL, respectively. The “% Solubility” value in series [2] was determined as 96%. In series [4], the half-life at 1 μM is 142 min. Further, the hepatocyte CLint at 1 μM in series [4] was determined as 4.86 µL/min/1e6 cells.
Regarding `COC(=O)[C@@H](C)NP(=O)(OC[C@H]1OC(OC(=O)c2cccnc2)[C@H](O)[C@@H]1O)Oc1ccccc1` (stereo partly drawn) [Compound 101, (3R, 4S, 5R)-3,4-dihydroxy-5-(((((1-methoxy-1-oxopropan-2-yl)amino)(phenoxy)phosphoryl)oxy)methyl)tetrahydrofuran-2-yl nicotinate], the “NAD+ level increase compared to untreated cells” value in series [1] is recorded as “showed an increase”; in series [3] it was “showed statistical significance in terms of NAD^+ level increases”. For the same molecule, the solubility at 1.5 h is 117 µM in series [2] (read-out: Mean Solubility) and 58 µg/mL in series [2] (setting [5]). In addition, the “% Solubility” value in series [2] came to 100%. Further, the “NAD+ level increase, comparison among the compounds” value in series [3] is “highest increase”. The half-life at 1 μM in series [4] (1 μM, 0-90 min, read-out: T½) was found to be 12.8 min. The hepatocyte CLint at 1 μM in series [4] (1 μM, read-out: Intrinsic Clearance (CL Int)) was 53.9 µL/min/1e6 cells.
For the molecule `O=C(OC[C@H]1OC(O)[C@H](O)[C@@H]1O)c1ccccn1` (stereo partly shown) [Compound 102, (3,4,5-trihydroxytetrahydrofuran-2-yl) methyl picolinate], the figures for the “NAD+ level increase compared to untreated cells” value in series [1] and in series [3] were “showed an increase” and “showed statistical significance in terms of NAD^+ level increases”, respectively. Moreover, the solubility at 1.5 h in series [2] (read-out: Mean Solubility) was 105 µM; in series [2] (setting [5]) it was 26.9 µg/mL. For the same molecule, the “% Solubility” value in series [2] is reported as 100%. This molecule also returned a half-life at 1 μM in series [4] of 45.7 min. For the same molecule, in series [4], the hepatocyte CLint at 1 μM turned out to be 15.2 µL/min/1e6 cells.
